Entries after “also recorded” stand apart in the source; their conditions may differ. Where two headings read alike, the source gives them in different places. Marks after values point to notes of the source that are not given here.
Assays:
[1] = cited from earlier work
[2] = cited from earlier work; remark: listed apart in the source
[3] = Distribution coefficient (logD) of ^68Ga-labeled ligands between octanol and PBS
[4] = Water solubility of the ligands; assay type: physicochemical; conditions: H2O and H2O/DMSO 70/30 w/w mixture; concentrations used in assays
Experimental: Elaborated solution thermodynamic studies combining several methods were performed in order to investigate those properties. Five FOXE analogs were water soluble in at least 1 × 10^–3 M concentration. […] Major results of physicochemical analysis for analogs characterized by most desirable properties are summarized below.

[5] = Ga(III) complex stability constants by Fe(III)–Ga(III) metal–metal competition, potentiometric and UV–vis pH-metric titrations; assay type: physicochemical
Text: The next step was to determine the coordination specificity of investigated ligands toward Ga(III) ions. This is a somewhat challenging task because it requires indirect methods since the investigated complexes started to form in a very acidic environment, where potentiometric measurements were not accurate owing to the error of the glass electrode,[55],[56] and gallium is spectroscopically silent in UV–vis. To bypass this inconvenience, we implemented metal–metal competition assays. After addition of a significant molar excess of Ga(III), the LMCT band of Fe(III)-FOXE analog complexes was almost fully silenced as Ga(III) replaced Fe(III) in its complexes (Figure S5). By implementing those spectral changes, we were able to calculate the stability constants of the Ga(III)-FOXE analog species present below or around pH 2, [GaHL]^+ (Table S8). Stability constants for the [GaL] species, present above pH 2, could be determined by potentiometric titrations for Ga(III)-FOX 2-2, 2-3, 2-4, and 3-5, with logβ of [GaHL]^+ fixed in the calculations (Table S8). For Ga(III)-FOX 2-5, we could not observe any deprotonation step using this methodology. To confirm this behavior, UV–vis titration of the Ga(III)-FOX 2-5 analog complex was performed in the 200–300 nm spectral range (Figure S6) corresponding to the hydroxamate groups’ protonation state.[57]−[59] […] Above pH 4, there were no significant changes in maxima localization or absorbance intensity. Above pH 9, absorbance started to rise again, which indicated complex dissociation. […] Overall, the data indicated a decreased stability of [GaL] species when decreasing or increasing the ring size of Ga(III)-FOX 2-5, as reflected by pKNHOH (Table S8). Implementing this full coordination specification of Ga(III)-FOX complexes, we were able to calculate speciation plots which are presented in Figure 1 for the most efficient analogs FOX 2-4 and FOX 2-5, given here as examples, and in Figure S7 for others.
Proposed biomimetic analogs of cyclic siderophore FOXE bind Fe(III) ions starting from pH around 0, and the complexation is essentially complete far below or around pH of 2. Therefore, the stability constants of the first species formed in solution were determined from the spectrophotometric pH-dependent batch titrations carried out in the pH range of around 0.1–2 (Figure S3), by following the changes in the intense LMCT band of the metal complex. These values were further used as constant values in spectrophotometric or potentiometric titrations carried out in the pH range from 2 to 11 (Figure S3) to get the overall stability constants, logβFeL (Table S5). Since Ga(III)-FOX complexes present similar coordination properties, the first species start to form below pH 2 as well. However, in this case, we have used indirect methods to determine stability constants for Ga(III)-FOXE analogs and the Ga(III) complex with native FOXE, as Ga(III) complexes are spectroscopically silent in the UV–vis region. Metal–metal competition titrations were carried out at pH 1.6 for FOX 2-5 and FOX 2-4 and at pH 2 for the rest of the analogs and the native compound. The intense LMCT band of the Fe(III) complex was silenced after addition of a fixed volume of Ga(III) ions (Figure S5).
Potentiometric titrations were performed using an automatic titrator system Titrando 905 (Metrohm) equipped with a 800 Dosino dosing unit and a microburet with a volume of 2 mL. A combined glass electrode was calibrated each day for hydrogen ion concentration by 0.1 M HClO4 with CO2-free 0.1 M NaOH solutions. A stream of high purity grade argon, presaturated with water vapor, passed over the surface of the solution cell, filled with 3 mL of the studied solution. For each system, a minimum of four independent titrations was performed. […]

[6] = set-up: method as in PMID 11673947; conditions: cited from earlier work
[7] = set-up: method as in Ref 3 (supplement); conditions: ref Ref 3 (supplement); cited from earlier work

## CC(=O)N(O)CCCCCNC(=O)CCC(=O)N(O)CCCCCNC(=O)CCC(=O)N(O)CCCCCN [DFOB]
[1]
  logβFe(III)L: 31.10 ^g
  pFe(III): 26.3 ^f
[2]
  logβGa(III)L: 27.56 ^g
  pGa(III): 21.6 ^g

## O=C1CCCCCCN(O)C(=O)CCNC(=O)CCCCCCN(O)C(=O)CCNC(=O)CCCCCCN(O)C(=O)CCN1 [FOX 2-6]
[3]
  logD at 20 min: -0.58
[4]
  solubility: not water soluble in concentrations used during our assays; also recorded: not soluble in H2O nor in a H2O/DMSO 70/30 w/w mixture

## O=C1CCC(=O)N(O)CCCCCNC(=O)CCC(=O)N(O)CCCCCNC(=O)CCC(=O)N(O)CCCCCN1 [FOXE, desferrioxamine E]
[1]
  pFe(III): 27.3 ^c
[5]; UV-Vis (metal–metal competition) titrations, [L] = 1·10^-4 M, M:L 1:1, T = 25°C, I = 0.1 M NaClO4
  logβ[GaL]: 29.79 (1)
[5]; calculated, pH 7.4
  pGa(III): 25.2
[5]; potentiometric [L] = 1 × 10^–3 M and UV–vis 5 × 10^–5 M, M:L 1:1, T = 25 °C, I = 0.1 M NaClO4
  logβGa(III)L: 29.79(1)
[6]
  E1/2 vs NHE: –477 ^d mv
  logβFe(II): 12.1 ^d
[7]
  protonation constant logβ, H2L + H+ ↔ H3L: 27.94
  protonation constant logβ, HL + H+ ↔ H2L: 19.31
  protonation constant logβ, L + H+ ↔ HL: 9.89

## transferrin: strong iron-binding ligand present in living organisms, literature comparator for pM
[1]
  pFe(III): 25.6 ^h
[2]
  pGa(III): 20.3 ^i

Reference: paper PMC8653149, “Cyclic Analogs of Desferrioxamine E Siderophore for ^68Ga Nuclear Imaging: Coordination Chemistry and Biological Activity in Staphylococcus aureus” (Inorganic Chemistry, 2021)
